Measured values from patent US11780901B2, “Analogues of parathyroid hormone (1-34) that function as agonists of the parathyroid hormone receptor-1 and display modified activity profiles” (Wisconsin Alumni Research Foundation, priority 2013, dated 2023).
Read-outs that look alike come from different tables or passages of the source. Starred links: 1 amine or outer side, 2 acyl side, 3 side chain; linkers in the order of their positions; H or OH if unused. Non-standard residues stand in square brackets, D forms with d. Residues, ends and D or L forms follow the SMILES beside them. X7 = NC(=O)CC[C@@H](CN[*:1])C(=O)[*:2]

Assays:
Type in all cases: cell-based
PTHR2 = PTHR2 (Homo sapiens, UniProt P49190); assay: PTHR2 activation, cAMP production (GloSensor) in HEK293 cells; parameters: expressed in transfected cells; details: for EC50: HEK-293 cells, GloSensor cAMP, read-out: EC50 (nM) of PTHR2 Activation
Sequence of PTHR2 (P49190 25-550): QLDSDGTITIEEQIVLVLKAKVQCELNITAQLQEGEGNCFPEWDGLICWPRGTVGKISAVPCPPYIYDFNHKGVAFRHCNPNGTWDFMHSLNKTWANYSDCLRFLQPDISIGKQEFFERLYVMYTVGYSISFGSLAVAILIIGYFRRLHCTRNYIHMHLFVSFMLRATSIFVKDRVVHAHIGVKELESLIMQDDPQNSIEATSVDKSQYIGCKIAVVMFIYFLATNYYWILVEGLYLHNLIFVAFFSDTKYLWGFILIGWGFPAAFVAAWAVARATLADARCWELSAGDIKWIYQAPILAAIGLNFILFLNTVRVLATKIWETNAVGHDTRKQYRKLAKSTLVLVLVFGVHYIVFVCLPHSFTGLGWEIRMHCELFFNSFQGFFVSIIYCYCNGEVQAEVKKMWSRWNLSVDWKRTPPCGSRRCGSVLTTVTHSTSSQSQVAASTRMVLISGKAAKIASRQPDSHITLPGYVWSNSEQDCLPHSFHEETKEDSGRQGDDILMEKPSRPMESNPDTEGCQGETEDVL
Text: The assays employ HEK-293 cells that have been engineered to express the appropriate receptor. GloSensor-based detection of cAMP provides a read-out of receptor activation. […] (Carter, P. H. et al. Actions of the Small Molecule Ligands SW106 and AH-3960 on the Type-1 Parathyroid Hormone Receptor. Molecular Endocrinology 29, 307-321 (2015).)
FIGS. 10A and 10B depict dose-response curves of PTHR1 activation (FIG. 10A) and PTHR2 activation (FIG. 10B) in HEK293 cells stably expressing PTHR1 or PTHR2. For PTHR1 activation and all the binding data, data represent mean±s.e.m from three independent measurements; For PTHR2 activation, data represent mean±s.e.m from four independent measurements. Curves were fit to the data using a four-parameter sigmoidal dose-response equation.

PTHR1 and PTHR2 = assay: Tolerance pattern of β residues for PTHR1 and PTHR2 activation; parameters: key: “*” denotes potent PTHR1-selective agonism; “#” denotes potent PTHR2-selective agonism; “*#” denotes potent agonism of both PTHR1 and PTHR2; details: PTHR1 vs PTHR2 agonism
Text: Enhanced selectivity via double α→β replacement.

PTHR1 = target: T1, PTHR1 (Homo sapiens, UniProt Q03431); assay: PTHR1 activation, cAMP production (GloSensor) in HEK293 cells; parameters: expressed in transfected cells; details: for PTHR1 Activation: Derivative EC50/PTH EC50: normalized to EC50 of PTH(1-34)-NH2 ([…]), cAMP production
T1 sequence (Q03431 27-593): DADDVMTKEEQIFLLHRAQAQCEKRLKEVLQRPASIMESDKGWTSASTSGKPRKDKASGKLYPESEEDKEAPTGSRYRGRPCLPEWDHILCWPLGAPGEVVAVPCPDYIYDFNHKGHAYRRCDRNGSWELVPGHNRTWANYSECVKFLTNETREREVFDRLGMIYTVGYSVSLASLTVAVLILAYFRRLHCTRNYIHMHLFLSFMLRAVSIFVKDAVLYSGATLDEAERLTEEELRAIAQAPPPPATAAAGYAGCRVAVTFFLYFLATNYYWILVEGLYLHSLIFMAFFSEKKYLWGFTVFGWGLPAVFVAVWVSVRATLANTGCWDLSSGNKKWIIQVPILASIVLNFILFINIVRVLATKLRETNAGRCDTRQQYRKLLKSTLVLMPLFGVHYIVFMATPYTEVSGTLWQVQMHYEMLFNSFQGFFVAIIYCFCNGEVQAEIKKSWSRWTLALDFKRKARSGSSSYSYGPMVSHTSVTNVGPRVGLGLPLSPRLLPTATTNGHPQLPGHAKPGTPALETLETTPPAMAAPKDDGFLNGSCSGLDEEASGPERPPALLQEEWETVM
Text: The assays employ HEK-293 cells that have been engineered to express the appropriate receptor. GloSensor-based detection of cAMP provides a read-out of receptor activation.
For PTHR1 activation and all the binding data, data represent mean±s.e.m from three independent measurements; For PTHR2 activation, data represent mean±s.e.m from four independent measurements. Curves were fit to the data using a four-parameter sigmoidal dose-response equation.
For cAMP dose-response assays, monolayers of confluent HEK 293 cells were pre-incubated with buffer containing d-luciferin (0.5 mM) in 96 well plates at room temperature until a stable baseline level of luminescence was established (30 min). Varying concentrations of agonist were then added, and the time course of luminescence response was recorded using a Perkin Elmer plate reader following α/β-peptide addition.

[1] = HEK-293 cells, GloSensor cAMP, read-out: EC50 (nM) of PTHR1 Activation
[2] = Table 8, hPTHR1, read-out: PTHR1 EC50

| Compound | EC50 (PTHR2) [nM] | Tolerance Pattern of β AA (PTHR1 and PTHR2) | EC50 (PTHR1; [1]) [nM] | PTHR1 Activation: Derivative EC50/PTH EC50 (PTHR1) | PTHR2 Activation: Derivative EC50/PTH EC50 (PTHR2; normalized to EC50 of PTH(1-34)-NH2 ([…] printed), cAMP production) | EC50 (PTHR1; [2]) [nM] |
| --- | --- | --- | --- | --- | --- | --- |
| CC[C@H](C)[C@H](NC(=O)[C@H](CCC(=O)O)NC(=O)[C@H](CO)NC(=O)[C@@H](NC(=O)[C@@H](N)CO)C(C)C)C(=O)N[C@@H](CCC(N)=O)C(=O)N[C@H](CC(=O)N[C@@H](CCSC)C(=O)N[C@@H](Cc1c[nH]cn1)C(=O)N[C@@H](CC(N)=O)C(=O)N[C@@H](CC(C)C)C(=O)NCC(=O)N[C@@H](CCCCN)C(=O)N[C@@H](Cc1c[nH]cn1)C(=O)N[C@@H](CC(C)C)C(=O)N[C@@H](CC(N)=O)C(=O)N[C@@H](CO)C(=O)N[C@@H](CCSC)C(=O)N[C@@H](CCC(=O)O)C(=O)N[C@@H](CCCNC(=N)N)C(=O)N[C@H](C(=O)N[C@@H](CCC(=O)O)C(=O)N[C@@H](Cc1c[nH]c2ccccc12)C(=O)N[C@@H](CC(C)C)C(=O)N[C@@H](CCCNC(=N)N)C(=O)N[C@@H](CCCCN)C(=O)N[C@@H](CCCCN)C(=O)N[C@@H](CC(C)C)C(=O)N[C@@H](CCC(N)=O)C(=O)N[C@@H](CC(=O)O)C(=O)N[C@H](C(=O)N[C@@H](Cc1c[nH]cn1)C(=O)N[C@@H](CC(N)=O)C(=O)N[C@@H](Cc1ccccc1)C(N)=O)C(C)C)C(C)C)CC(C)C [SEQ. ID. NO: 44] | 35 ± 2.84 | * |  |  |  |  |
| CC[C@H](C)[C@H](NC(=O)[C@H](CCC(=O)O)NC(=O)[C@H](CO)NC(=O)[C@@H](NC(=O)[C@@H](N)CO)C(C)C)C(=O)N[C@@H](CCC(N)=O)C(=O)NC[C@@H](CC(C)C)C(=O)N[C@@H](CCSC)C(=O)N[C@@H](Cc1c[nH]cn1)C(=O)N[C@@H](CC(N)=O)C(=O)N[C@@H](CC(C)C)C(=O)NCC(=O)N[C@@H](CCCCN)C(=O)N[C@@H](Cc1c[nH]cn1)C(=O)N[C@@H](CC(C)C)C(=O)N[C@@H](CC(N)=O)C(=O)N[C@@H](CO)C(=O)N[C@@H](CCSC)C(=O)N[C@@H](CCC(=O)O)C(=O)N[C@@H](CCCNC(=N)N)C(=O)N[C@H](C(=O)N[C@@H](CCC(=O)O)C(=O)N[C@@H](Cc1c[nH]c2ccccc12)C(=O)N[C@@H](CC(C)C)C(=O)N[C@@H](CCCNC(=N)N)C(=O)N[C@@H](CCCCN)C(=O)N[C@@H](CCCCN)C(=O)N[C@@H](CC(C)C)C(=O)N[C@@H](CCC(N)=O)C(=O)N[C@@H](CC(=O)O)C(=O)N[C@H](C(=O)N[C@@H](Cc1c[nH]cn1)C(=O)N[C@@H](CC(N)=O)C(=O)N[C@@H](Cc1ccccc1)C(N)=O)C(C)C)C(C)C [SEQ. ID. NO: 28] | 41.4 ± 5.18 | * | 0.36 ± 0.11 | 0.95 | 47.64 |  |
| CC[C@H](C)[C@H](NC(=O)[C@H](CCC(=O)O)NC(=O)[C@H](CO)NC(=O)[C@@H](NC(=O)[C@@H](N)CO)C(C)C)C(=O)N[C@@H](CCC(N)=O)CC(=O)N[C@@H](CC(C)C)C(=O)N[C@@H](CCSC)C(=O)N[C@@H](Cc1c[nH]cn1)C(=O)N[C@@H](CC(N)=O)C(=O)N[C@@H](CC(C)C)C(=O)NCC(=O)N[C@@H](CCCCN)C(=O)N[C@@H](Cc1c[nH]cn1)C(=O)N[C@@H](CC(C)C)C(=O)N[C@@H](CC(N)=O)C(=O)N[C@@H](CO)C(=O)N[C@@H](CCSC)C(=O)N[C@@H](CCC(=O)O)C(=O)N[C@@H](CCCNC(=N)N)C(=O)N[C@H](C(=O)N[C@@H](CCC(=O)O)C(=O)N[C@@H](Cc1c[nH]c2ccccc12)C(=O)N[C@@H](CC(C)C)C(=O)N[C@@H](CCCNC(=N)N)C(=O)N[C@@H](CCCCN)C(=O)N[C@@H](CCCCN)C(=O)N[C@@H](CC(C)C)C(=O)N[C@@H](CCC(N)=O)C(=O)N[C@@H](CC(=O)O)C(=O)N[C@H](C(=O)N[C@@H](Cc1c[nH]cn1)C(=O)N[C@@H](CC(N)=O)C(=O)N[C@@H](Cc1ccccc1)C(N)=O)C(C)C)C(C)C [SEQ. ID. NO: 43] |  | # | 8.45 ± 1.35 | 22.24 |  |  |
| CC[C@H](C)[C@H](NC(=O)[C@H](CCC(=O)O)NC(=O)[C@H](CO)NC(=O)[C@@H](NC(=O)[C@@H](N)CO)C(C)C)C(=O)NC[C@H](CCC(N)=O)C(=O)N[C@@H](CC(C)C)C(=O)N[C@@H](CCSC)C(=O)N[C@@H](Cc1c[nH]cn1)C(=O)N[C@@H](CC(N)=O)C(=O)N[C@@H](CC(C)C)C(=O)NCC(=O)N[C@@H](CCCCN)C(=O)N[C@@H](Cc1c[nH]cn1)C(=O)N[C@@H](CC(C)C)C(=O)N[C@@H](CC(N)=O)C(=O)N[C@@H](CO)C(=O)N[C@@H](CCSC)C(=O)N[C@@H](CCC(=O)O)C(=O)N[C@@H](CCCNC(=N)N)C(=O)N[C@H](C(=O)N[C@@H](CCC(=O)O)C(=O)N[C@@H](Cc1c[nH]c2ccccc12)C(=O)N[C@@H](CC(C)C)C(=O)N[C@@H](CCCNC(=N)N)C(=O)N[C@@H](CCCCN)C(=O)N[C@@H](CCCCN)C(=O)N[C@@H](CC(C)C)C(=O)N[C@@H](CCC(N)=O)C(=O)N[C@@H](CC(=O)O)C(=O)N[C@H](C(=O)N[C@@H](Cc1c[nH]cn1)C(=O)N[C@@H](CC(N)=O)C(=O)N[C@@H](Cc1ccccc1)C(N)=O)C(C)C)C(C)C [SEQ. ID. NO: 35] (H-SVSEI[X7]LMHNLGKHLNSMERVEWLRKKLQDVHNF-NH2; N-terminus assumed) |  | *# | 0.42 ± 0.07 | 1.11 |  | 1.96 ± 0.45 |
| CC[C@H](C)[C@H](NC(=O)[C@H](CCC(=O)O)NC(=O)[C@H](CO)NC(=O)[C@@H](CNC(=O)[C@@H](N)CO)C(C)C)C(=O)N[C@@H](CCC(N)=O)C(=O)N[C@@H](CC(C)C)C(=O)N[C@@H](CCSC)C(=O)N[C@@H](Cc1c[nH]cn1)C(=O)N[C@@H](CC(N)=O)C(=O)N[C@@H](CC(C)C)C(=O)NCC(=O)N[C@@H](CCCCN)C(=O)N[C@@H](Cc1c[nH]cn1)C(=O)N[C@@H](CC(C)C)C(=O)N[C@@H](CC(N)=O)C(=O)N[C@@H](CO)C(=O)N[C@@H](CCSC)C(=O)N[C@@H](CCC(=O)O)C(=O)N[C@@H](CCCNC(=N)N)C(=O)N[C@H](C(=O)N[C@@H](CCC(=O)O)C(=O)N[C@@H](Cc1c[nH]c2ccccc12)C(=O)N[C@@H](CC(C)C)C(=O)N[C@@H](CCCNC(=N)N)C(=O)N[C@@H](CCCCN)C(=O)N[C@@H](CCCCN)C(=O)N[C@@H](CC(C)C)C(=O)N[C@@H](CCC(N)=O)C(=O)N[C@@H](CC(=O)O)C(=O)N[C@H](C(=O)N[C@@H](Cc1c[nH]cn1)C(=O)N[C@@H](CC(N)=O)C(=O)N[C@@H](Cc1ccccc1)C(N)=O)C(C)C)C(C)C [SEQ. ID. NO: 23] |  | # | 4.47 ± 0.47 | 11.76 |  |  |
| CC[C@H](C)[C@H](NC(=O)[C@H](CCC(=O)O)NC(=O)[C@H](CO)NC(=O)[C@@H](NC(=O)[C@@H](N)CO)C(C)C)C(=O)N[C@@H](CCC(N)=O)C(=O)NC[C@H](CC(C)C)C(=O)N[C@@H](CCSC)C(=O)N[C@@H](Cc1c[nH]cn1)C(=O)N[C@@H](CC(N)=O)C(=O)N[C@@H](CC(C)C)C(=O)NCC(=O)N[C@@H](CCCCN)C(=O)N[C@@H](Cc1c[nH]cn1)C(=O)N[C@@H](CC(C)C)C(=O)N[C@@H](CC(N)=O)C(=O)N[C@@H](CO)C(=O)N[C@@H](CCSC)C(=O)N[C@@H](CCC(=O)O)C(=O)N[C@@H](CCCNC(=N)N)C(=O)N[C@H](C(=O)N[C@@H](CCC(=O)O)C(=O)N[C@@H](Cc1c[nH]c2ccccc12)C(=O)N[C@@H](CC(C)C)C(=O)N[C@@H](CCCNC(=N)N)C(=O)N[C@@H](CCCCN)C(=O)N[C@@H](CCCCN)C(=O)N[C@@H](CC(C)C)C(=O)N[C@@H](CCC(N)=O)C(=O)N[C@@H](CC(=O)O)C(=O)N[C@H](C(=O)N[C@@H](Cc1c[nH]cn1)C(=O)N[C@@H](CC(N)=O)C(=O)N[C@@H](Cc1ccccc1)C(N)=O)C(C)C)C(C)C [SEQ. ID. NO: 36] |  | *# | 0.47 ± 0.14 | 1.24 |  | 0.24 ± 0.01 |
